The results in this text go back to ChEMBL document CHEMBL1201862, “PubChem BioAssay data set” (2004).

The target of assay [1] is T1, Hexokinase-1 (Homo sapiens, UniProt P19367).
T1 sequence (P19367 whole entry): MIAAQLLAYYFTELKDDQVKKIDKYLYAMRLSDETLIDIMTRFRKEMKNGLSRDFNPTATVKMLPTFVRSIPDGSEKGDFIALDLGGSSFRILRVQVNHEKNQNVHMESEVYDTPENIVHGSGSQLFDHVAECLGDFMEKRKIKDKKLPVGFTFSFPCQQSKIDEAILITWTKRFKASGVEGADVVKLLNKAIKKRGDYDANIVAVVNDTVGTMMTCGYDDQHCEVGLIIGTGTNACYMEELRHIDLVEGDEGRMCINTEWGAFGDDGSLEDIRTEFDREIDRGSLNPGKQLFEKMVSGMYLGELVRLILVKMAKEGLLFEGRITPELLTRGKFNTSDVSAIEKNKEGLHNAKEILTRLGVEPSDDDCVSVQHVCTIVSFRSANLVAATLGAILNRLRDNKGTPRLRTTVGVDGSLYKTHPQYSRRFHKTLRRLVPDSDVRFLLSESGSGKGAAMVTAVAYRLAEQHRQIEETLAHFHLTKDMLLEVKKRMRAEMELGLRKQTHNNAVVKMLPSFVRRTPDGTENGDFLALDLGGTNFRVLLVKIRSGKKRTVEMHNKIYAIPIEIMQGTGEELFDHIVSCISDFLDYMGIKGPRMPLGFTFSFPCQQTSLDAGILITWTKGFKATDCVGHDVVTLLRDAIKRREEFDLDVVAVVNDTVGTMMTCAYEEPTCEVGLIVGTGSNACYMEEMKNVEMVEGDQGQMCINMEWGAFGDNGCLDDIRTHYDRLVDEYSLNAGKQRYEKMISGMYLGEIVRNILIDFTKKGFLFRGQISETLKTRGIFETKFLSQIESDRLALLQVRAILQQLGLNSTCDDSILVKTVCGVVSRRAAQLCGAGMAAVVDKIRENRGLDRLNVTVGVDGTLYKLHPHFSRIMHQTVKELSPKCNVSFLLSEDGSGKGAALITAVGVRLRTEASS
Nature of the assay: hexokinase 1 activity inhibitors, potency – biochemical, set 2, resazurin fluorescence coupled readout, selectivity assay for HKDC1 inhibitor project, SAR follow-up (AID 588356). The format is functional.

Assay [2] addresses T2, Hexokinase HKDC1 (Homo sapiens, UniProt Q2TB90).
T2 sequence (Q2TB90 whole entry): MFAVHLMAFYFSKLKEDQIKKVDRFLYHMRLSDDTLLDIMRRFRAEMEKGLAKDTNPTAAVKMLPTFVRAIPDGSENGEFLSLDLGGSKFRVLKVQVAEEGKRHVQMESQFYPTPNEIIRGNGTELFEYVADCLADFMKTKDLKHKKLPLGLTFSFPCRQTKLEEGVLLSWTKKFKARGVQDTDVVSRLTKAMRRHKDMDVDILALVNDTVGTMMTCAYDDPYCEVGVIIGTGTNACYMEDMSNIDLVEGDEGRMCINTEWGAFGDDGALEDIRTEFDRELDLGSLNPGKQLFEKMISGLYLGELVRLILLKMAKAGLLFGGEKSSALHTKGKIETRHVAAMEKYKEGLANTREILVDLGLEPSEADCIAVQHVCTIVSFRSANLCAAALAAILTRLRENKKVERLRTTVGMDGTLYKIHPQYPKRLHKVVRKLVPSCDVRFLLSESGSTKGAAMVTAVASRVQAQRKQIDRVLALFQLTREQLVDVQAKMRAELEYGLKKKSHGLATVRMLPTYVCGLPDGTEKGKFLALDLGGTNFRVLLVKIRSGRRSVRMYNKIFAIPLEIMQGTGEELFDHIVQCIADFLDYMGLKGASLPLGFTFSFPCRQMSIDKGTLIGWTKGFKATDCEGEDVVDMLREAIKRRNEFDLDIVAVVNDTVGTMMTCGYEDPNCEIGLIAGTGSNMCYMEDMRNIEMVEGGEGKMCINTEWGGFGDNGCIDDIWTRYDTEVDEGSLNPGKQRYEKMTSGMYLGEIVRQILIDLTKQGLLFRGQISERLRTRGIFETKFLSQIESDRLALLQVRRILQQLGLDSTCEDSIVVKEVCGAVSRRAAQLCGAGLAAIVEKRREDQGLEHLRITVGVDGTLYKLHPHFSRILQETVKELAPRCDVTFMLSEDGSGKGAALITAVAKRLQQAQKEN
Nature of the assay: analog inhibition of human HKDC1 activity – biochemical, set 2, SAR follow-up (AID 588355). The format is functional.

Assay [3] addresses T3, Nuclear receptor subfamily 0 group B member 1 (Homo sapiens, UniProt P51843).
T3 sequence (P51843 whole entry): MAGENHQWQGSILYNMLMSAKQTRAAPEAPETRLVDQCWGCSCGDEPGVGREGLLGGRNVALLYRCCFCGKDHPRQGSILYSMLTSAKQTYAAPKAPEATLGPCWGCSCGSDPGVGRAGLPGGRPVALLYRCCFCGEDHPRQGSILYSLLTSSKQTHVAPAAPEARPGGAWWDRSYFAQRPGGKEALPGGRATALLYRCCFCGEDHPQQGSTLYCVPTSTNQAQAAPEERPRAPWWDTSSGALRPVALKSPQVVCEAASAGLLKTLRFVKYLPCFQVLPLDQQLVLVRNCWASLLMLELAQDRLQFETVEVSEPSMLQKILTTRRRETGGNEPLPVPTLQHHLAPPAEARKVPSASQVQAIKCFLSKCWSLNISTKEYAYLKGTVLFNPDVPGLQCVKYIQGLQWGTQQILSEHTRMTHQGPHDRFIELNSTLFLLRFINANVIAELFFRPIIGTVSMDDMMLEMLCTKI
Kind of assay: Luminescence-based cell-based high throughput dose response assay for inhibitors of the orphan nuclear receptor subfamily 0, group B, member 1 (DAX1; NR0B1). [Related pubchem assays (depositor defined):AID504766, AID504790]. Type of assay: functional.

Assay [4] has as its system HEK293. Kind of assay: cells. Type of assay: functional, cell-based. Conditions: Homo sapiens.
Assay [5] has as its system BJ. Nature of the assay: BJ-TERT fibroblast viability loss – cell-based, RAS-independent, luminescence, dose response (AID 1933). The format is functional. Conditions: Homo sapiens.
For assay [6], the target named is T4, DNA repair protein RAD52 homolog (Homo sapiens, UniProt P43351).
T4 sequence (P43351 whole entry): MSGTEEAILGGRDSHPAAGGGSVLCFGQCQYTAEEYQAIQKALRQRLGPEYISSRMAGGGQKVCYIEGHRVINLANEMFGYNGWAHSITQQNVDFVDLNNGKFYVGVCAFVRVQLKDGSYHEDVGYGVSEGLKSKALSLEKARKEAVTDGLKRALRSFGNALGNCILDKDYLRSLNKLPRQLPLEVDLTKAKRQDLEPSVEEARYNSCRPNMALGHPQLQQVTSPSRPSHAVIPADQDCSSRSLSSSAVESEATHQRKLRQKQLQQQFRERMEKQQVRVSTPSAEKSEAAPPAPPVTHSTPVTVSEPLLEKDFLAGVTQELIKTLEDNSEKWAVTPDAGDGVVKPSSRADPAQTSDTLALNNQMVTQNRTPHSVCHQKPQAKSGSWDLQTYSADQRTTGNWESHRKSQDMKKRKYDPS
The format is functional, biochemical.

For assay [7], the system named is BJ. Nature of the assay: cells. The format is functional, cell-based. The following applies: Homo sapiens.
A short description of assay [8]: Luminescent dose response cell-based high throughput screening assay for inhibitors of the Janus kinase 2 mutant JAK2V617F. [Related pubchem assays: 1446 (Primary screen.), 1521 (Confirmation assay.), 1486 (Counter screen.)]. The format is functional. (In general: The purpose of a counterscreen is to sort out artefacts and off-target activity.)
Assay [9] is described as follows: Trypanosoma cruzi growth suppression in host cells – NIH3T3 host cells, beta-gal luminescence, confirmation (AID 2044).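 Note: intracellular parasites grown in NIH/3T3 mouse fibroblasts as host cells; luminescent beta-galactosidase reporter signal from transgenic T. cruzi replicating inside host cells; inhibitors lower the luminescence signal.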 Type of assay: functional, cell-based.
The subject of assay [10] is BJ. Nature of the assay: BJ-TERT-LT-ST fibroblast viability loss – cell-based, RAS-independent, luminescence, dose response (AID 1935).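 Note: BJ fibroblasts immortalized with TERT plus LT and ST oncogenes.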 The following applies: Homo sapiens. The format is functional.
Assay [11] can be described thus: DRD fibroblast viability loss – cell-based, non-viral oncogenic, luminescence, dose response (AID 1934). The format is functional. Conditions: Homo sapiens.
The subject of assay [12] is HEK293. Nature of the assay: cells. The following applies: Homo sapiens.
Assay [13] can be described thus: viability loss in HeLa cells – cytotoxicity control for MgcRacGAP inhibitor project, dose response (AID 624300). The format is functional.
Assay [14] in a line: NIH3T3 cell viability loss – ATP luminescence, mouse fibroblasts, counter-screen, dose response (AID 2010).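 Note: cells exposed to compound for about 90 hours before reading.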 Type of assay: functional, cell-based.
Assay [15] has as its system HEK293. Kind of assay: cells. Conditions: Homo sapiens. This is another data set of the same source.
In assay [16] the target is T5, Rac GTPase-activating protein 1 (Homo sapiens, UniProt Q9H0H5).
T5 sequence (Q9H0H5 whole entry): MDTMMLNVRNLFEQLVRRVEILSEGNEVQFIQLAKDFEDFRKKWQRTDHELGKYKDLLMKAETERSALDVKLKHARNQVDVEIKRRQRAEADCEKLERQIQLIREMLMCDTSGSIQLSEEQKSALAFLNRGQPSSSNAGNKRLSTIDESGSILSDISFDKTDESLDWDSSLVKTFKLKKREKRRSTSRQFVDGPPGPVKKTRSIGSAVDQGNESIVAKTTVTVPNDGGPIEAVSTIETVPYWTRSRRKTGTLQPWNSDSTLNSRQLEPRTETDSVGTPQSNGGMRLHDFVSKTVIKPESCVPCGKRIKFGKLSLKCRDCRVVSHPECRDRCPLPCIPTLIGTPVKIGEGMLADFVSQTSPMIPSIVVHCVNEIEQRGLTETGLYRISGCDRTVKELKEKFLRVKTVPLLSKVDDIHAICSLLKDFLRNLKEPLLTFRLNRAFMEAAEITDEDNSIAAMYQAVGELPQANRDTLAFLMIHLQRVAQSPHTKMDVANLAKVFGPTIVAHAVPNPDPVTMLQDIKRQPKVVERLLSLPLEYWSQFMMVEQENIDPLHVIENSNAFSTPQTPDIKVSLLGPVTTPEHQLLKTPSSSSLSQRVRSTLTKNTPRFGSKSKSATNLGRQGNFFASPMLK
Nature of the assay: blockers of MgcRacGAP-driven Rac1 GTP hydrolysis – biochemical, ADP Hunter fluorescence, primary and confirmatory, confirmation (AID 624330). Type of assay: functional.

Assay [17] can be described thus: microbe, parasite or virus in culture. Type of assay: functional. Conditions: Mycobacterium tuberculosis.
Assay [18] concerns the target T2, Hexokinase HKDC1. Nature of the assay: SAR analysis of small molecule inhibitors of hexokinase domain containing I (HKDC1). [Related pubchem assays (depositor defined):AID493160, AID493190]. The format is functional.
The target in assay [19] is T1, Hexokinase-1. Kind of assay: SAR analysis of small molecule inhibitors of hexokinase domain containing I (HKDC1) in the hexokinase 1 selectivity assay. [Related pubchem assays (depositor defined):AID493160, AID493190]. Type of assay: functional.
Assay [20] has as its target Voltage-gated inwardly rectifying potassium channel KCNH2 (Homo sapiens, UniProt Q12809). Conditions: Potency.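 Note: confirmatory quantitative high-throughput screen measuring inhibition of hERG channel activity.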
For assay [21], the target named is Glycogen synthase kinase-3 beta (Homo sapiens, UniProt P49841). Nature of the assay: Inhibition of Human GSK-3 beta Activity Measured in Biochemical System Using Microfluidics - 2063-05_Inhibitor_Dose_DryPowder_Activity. [Related pubchem assays (depositor defined):AID2709].
Sequence of Glycogen synthase kinase-3 beta (P49841 whole entry): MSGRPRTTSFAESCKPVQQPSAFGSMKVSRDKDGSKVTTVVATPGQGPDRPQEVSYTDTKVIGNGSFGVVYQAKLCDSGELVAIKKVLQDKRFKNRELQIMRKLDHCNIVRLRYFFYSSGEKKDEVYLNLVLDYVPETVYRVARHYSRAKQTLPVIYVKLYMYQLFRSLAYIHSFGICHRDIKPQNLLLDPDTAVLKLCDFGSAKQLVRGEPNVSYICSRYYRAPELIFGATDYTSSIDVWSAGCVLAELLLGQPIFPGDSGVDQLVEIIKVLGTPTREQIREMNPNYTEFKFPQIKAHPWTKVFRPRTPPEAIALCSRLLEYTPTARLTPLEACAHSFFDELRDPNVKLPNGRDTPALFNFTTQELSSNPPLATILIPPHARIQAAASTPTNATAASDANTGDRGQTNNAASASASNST
Assay [22] addresses Glycogen synthase kinase-3 alpha (Homo sapiens, UniProt P49840). Kind of assay: Inhibition of Human GSK-3 alpha Activity Measured in Biochemical System Using Microfluidics - 2063-06_Inhibitor_Dose_DryPowder_Activity. [Related pubchem assays (depositor defined):AID2709].
Assay [23] deals with Streptococcus sp. 'group A'. Kind of assay: Streptococcus pyogenes SK(-)GAS viability under kanamycin – luminescence, BacTiterGlo, confirmation, counter-screen for streptokinase expression inhibitor project, dose response (AID 1900). Type of assay: functional, organism-based.
Assay [24] concerns Escherichia coli. Nature of the assay: microbe, parasite or virus in culture.
Assay [25] deals with Streptococcus. Kind of assay: GAS UMAA2166 growth inhibition – luminescence, BacTiterGlo, counter-screen for streptokinase expression inhibitor project, dose response (AID 1915).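 Note: potency for reduction of bacterial viability or growth.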 Type of assay: functional, organism-based.

Broadly, the IC50 is the midpoint of a concentration-inhibition curve. The term EC50 denotes the concentration at which the effect is half-maximal. By AC50 is commonly meant the concentration at which the activity in the assay is half-maximal.

Calls of active or inactive are those of the source.

Sequence of Glycogen synthase kinase-3 alpha (P49840 whole entry): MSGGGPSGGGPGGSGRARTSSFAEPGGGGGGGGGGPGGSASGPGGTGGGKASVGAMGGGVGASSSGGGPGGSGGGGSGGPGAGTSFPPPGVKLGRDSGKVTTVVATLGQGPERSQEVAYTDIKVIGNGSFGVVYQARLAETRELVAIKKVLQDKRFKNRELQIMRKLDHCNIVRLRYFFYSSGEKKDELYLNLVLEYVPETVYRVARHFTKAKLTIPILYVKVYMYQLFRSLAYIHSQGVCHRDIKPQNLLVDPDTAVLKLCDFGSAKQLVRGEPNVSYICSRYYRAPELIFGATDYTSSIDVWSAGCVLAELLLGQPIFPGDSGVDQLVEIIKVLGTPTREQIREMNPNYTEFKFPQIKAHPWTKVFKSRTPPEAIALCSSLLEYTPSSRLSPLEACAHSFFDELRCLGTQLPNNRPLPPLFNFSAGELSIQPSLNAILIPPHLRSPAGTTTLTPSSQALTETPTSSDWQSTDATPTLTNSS
Sequence of Voltage-gated inwardly rectifying potassium channel KCNH2 (Q12809 whole entry): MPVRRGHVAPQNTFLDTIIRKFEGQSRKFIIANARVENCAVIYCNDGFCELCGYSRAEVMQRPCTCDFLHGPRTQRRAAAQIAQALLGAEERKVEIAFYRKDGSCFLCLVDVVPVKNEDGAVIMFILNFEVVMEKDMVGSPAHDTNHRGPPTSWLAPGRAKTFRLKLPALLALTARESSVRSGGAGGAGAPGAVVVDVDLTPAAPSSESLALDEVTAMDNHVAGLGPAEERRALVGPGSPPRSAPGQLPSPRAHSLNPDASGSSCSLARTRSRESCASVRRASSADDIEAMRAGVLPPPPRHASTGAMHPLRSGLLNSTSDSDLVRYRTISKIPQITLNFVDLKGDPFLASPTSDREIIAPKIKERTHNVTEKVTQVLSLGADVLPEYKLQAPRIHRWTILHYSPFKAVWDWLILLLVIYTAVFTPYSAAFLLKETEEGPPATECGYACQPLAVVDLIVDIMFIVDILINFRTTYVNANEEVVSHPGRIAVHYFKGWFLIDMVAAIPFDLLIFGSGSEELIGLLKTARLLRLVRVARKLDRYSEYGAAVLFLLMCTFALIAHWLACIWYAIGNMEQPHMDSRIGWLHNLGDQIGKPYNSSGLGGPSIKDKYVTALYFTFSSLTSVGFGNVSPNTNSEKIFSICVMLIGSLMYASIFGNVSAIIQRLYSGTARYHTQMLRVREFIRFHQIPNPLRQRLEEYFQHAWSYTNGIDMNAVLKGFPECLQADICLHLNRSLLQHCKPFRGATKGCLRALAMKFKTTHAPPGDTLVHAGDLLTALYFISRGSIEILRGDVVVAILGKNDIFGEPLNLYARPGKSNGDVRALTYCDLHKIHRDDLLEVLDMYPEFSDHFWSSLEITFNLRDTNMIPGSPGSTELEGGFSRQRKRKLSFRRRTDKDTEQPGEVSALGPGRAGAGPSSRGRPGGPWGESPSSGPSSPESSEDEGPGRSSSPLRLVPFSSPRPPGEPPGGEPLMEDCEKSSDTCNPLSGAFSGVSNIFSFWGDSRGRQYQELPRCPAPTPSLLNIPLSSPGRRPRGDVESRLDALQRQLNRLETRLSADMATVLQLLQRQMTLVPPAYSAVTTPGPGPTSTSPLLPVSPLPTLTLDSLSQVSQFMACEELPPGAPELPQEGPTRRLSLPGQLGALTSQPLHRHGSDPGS

Regarding `CC(=O)NC1C(=O)N(Cc2ccccc2)c2ccc(C)cc21` (stereo not given), the IC50 in assay [1] and in assay [2] was > 80 µM (inactive) throughout.
As for `Cc1cc([N+](=O)[O-])nn1CCCC(=O)NC1CCCCC1`, the IC50 in assay [3] and in assay [4] was > 67.5 µM (inactive) in each case.
In the case of `Cc1cc2[nH]c3c(c[n+](C)c4ccccc34)c2cc1C`, the concentration giving a half-maximal response (EC50) in assay [5] was 3.9 µM (active); in [7], 5.11 µM (inconclusive); in assay [9], 0.68 µM (active); in [10], 5.36 µM (inconclusive); in [11], 5.3 µM (active); in assay [12], > 59.7 µM (inactive). In addition, the EC50 is 6.13 µM (active) in assay [14] and > 59.7 µM (inactive) in [15]. The concentration at half-maximal activity (AC50) in [6] was 0.372 µM (active). In addition, the 50% inhibitory concentration (IC50) in assay [8] is 0.639 µM (active); in assay [16] it was 36.2 µM (active). Further, the CC50 in assay [13] is 11.8 µM (active); in assay [17] it was 2.06 µM (active).
In the case of `COc1cc2c(cc1OC)-c1cc(NCc3cccnc3)nc(=O)n1CC2`, the IC50 in assay [18] and in assay [19] was > 80 µM (inactive) in each case.
For `CCCCCC/C(C=O)=C\c1ccccc1`, the AC50 in [20] was 0.0501 µM (inconclusive).
Take `CCCCOC(=O)C1C(C)=Nc2ncnn2C1c1cccc(OC)c1OC` (stereo not given): the AC50 was 0.538 µM (active) in assay [21] and 0.989 µM (active) in assay [22].
For `CCN1CCN(c2cc3c(cc2F)c(=O)c(C(=O)O)cn3C2CC2)CC1` [ENROFLOXACIN], the values for the EC50 in assay [23] and in [25] were 1.22 µM (active) and 1.04 µM (active), respectively. In addition, the AC50 in assay [24] is 2.46 µM (active).
